In US20060089378A1 (priority 2004, published 2006):
Like-named read-outs stand apart in the source and are kept apart here.

Key:
Cannabinoid CB1 Receptor = target: T1, Cannabinoid CB1 Receptor (Homo sapiens, UniProt P21554); test: Binding assay for CB1 agonists or inverse agonists (radioligand competition, membranes of transfected SK-N-MC cells)
T1 construct: expressed in transfected cells

Cannabinoid CB2 Receptor = target: T2, Cannabinoid CB2 Receptor (Homo sapiens, UniProt P34972); test: Binding assay for CB2 agonists or inverse agonists (radioligand competition, membranes of transfected SK-N-MC cells); conditions: read-out: Cannabinoid CB2 Receptor Binding percent inhibition
T2 construct: expressed in transfected cells
T2 sequence (P34972 whole entry): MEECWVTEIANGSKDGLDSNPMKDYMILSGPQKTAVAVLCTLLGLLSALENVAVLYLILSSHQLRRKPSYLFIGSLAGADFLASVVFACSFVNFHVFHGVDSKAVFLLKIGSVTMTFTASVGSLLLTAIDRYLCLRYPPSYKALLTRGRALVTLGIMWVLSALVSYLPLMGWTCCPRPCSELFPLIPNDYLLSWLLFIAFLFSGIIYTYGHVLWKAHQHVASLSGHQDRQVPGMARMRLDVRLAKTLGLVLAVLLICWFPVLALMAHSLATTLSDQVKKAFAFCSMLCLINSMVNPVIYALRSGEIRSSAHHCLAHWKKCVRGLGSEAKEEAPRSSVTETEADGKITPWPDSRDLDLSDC

CB1 receptor (human) = CB1 receptor (human) (Homo sapiens, UniProt P21554); test: cell-based
Chain of CB1 receptor (human) (P21554 whole entry): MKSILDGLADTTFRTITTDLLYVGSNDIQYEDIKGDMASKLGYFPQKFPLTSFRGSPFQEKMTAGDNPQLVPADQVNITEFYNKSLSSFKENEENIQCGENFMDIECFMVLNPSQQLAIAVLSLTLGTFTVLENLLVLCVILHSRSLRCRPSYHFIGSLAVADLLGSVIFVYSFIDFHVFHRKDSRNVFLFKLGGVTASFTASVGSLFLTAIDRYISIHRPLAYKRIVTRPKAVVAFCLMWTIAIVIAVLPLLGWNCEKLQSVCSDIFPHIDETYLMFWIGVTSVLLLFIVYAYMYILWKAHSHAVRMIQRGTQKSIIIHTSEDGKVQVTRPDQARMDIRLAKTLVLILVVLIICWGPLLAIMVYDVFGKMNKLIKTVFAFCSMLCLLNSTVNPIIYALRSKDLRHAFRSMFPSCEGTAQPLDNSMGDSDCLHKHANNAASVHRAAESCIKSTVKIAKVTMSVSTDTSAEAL

T1 sequence (P21554 whole entry): as above

Row | SMILES | IC50 (Cannabinoid CB1 Receptor) [nM] | inhibition at 0.2 µM (Cannabinoid CB2 Receptor; test concentration of 0.2 μM, compounds without an IC50 binding value) [%] | EC50 (CB1 receptor (human)) [nM] | inhibition at 0.2 µM (Cannabinoid CB2 Receptor) [%]
1 | C[C@@H](NC(=O)c1nn(-c2ccc(Cl)cc2Cl)c2c1CN(S(=O)(=O)N(C)C)C/C2=C\c1ccc(F)cc1)c1ccccc1 [Cpd 39, (7E)-1-(2,4-dichloro-phenyl)-5-dimethylsulfamoyl-7-(4-fluoro-benzylidene)-4,5,6,7-tetrahydro-1H-pyrazolo[4,3-c]pyridine-3-carboxylic acid [(1R)-1-phenyl-ethyl]-amide] | 2 | 42 | 1 | 
2 | COc1ccc(/C=C2\CN(S(C)(=O)=O)Cc3c(C(=O)N[C@H](C)c4ccccc4)nn(-c4ccc(Cl)cc4Cl)c32)cc1 [Cpd 40, (7E)-1-(2,4-dichloro-phenyl)-5-methanesulfonyl-7-(4-methoxy-benzylidene)-4,5,6,7-tetrahydro-1H-pyrazolo[4,3-c]pyridine-3-carboxylic acid [(1R)-1-phenyl-ethyl]-amide] | 2 |  | 1 | 47
3 | CCNC(=O)N1C/C(=C\c2ccc(OC)cc2)c2c(c(C(=O)N[C@H](C)c3ccccc3)nn2-c2ccc(Cl)cc2Cl)C1 [Cpd 41, (7E)-1-(2,4-dichloro-phenyl)-7-(4-methoxy-benzylidene)-1,4,6,7-tetrahydro-pyrazolo[4,3-c]pyridine-3,5-dicarboxylic acid 5-ethylamide 3-{[(1R)-1-phenyl-ethyl]-amide}] | 9 |  | 0.2 | 27
4 | COc1ccc(/C=C2\CN(C(C)=O)Cc3c(C(=O)N[C@H](C)c4ccccc4)nn(-c4ccc(Cl)cc4Cl)c32)cc1 [Cpd 42, (7E)-5-acetyl-1-(2,4-dichloro-phenyl)-7-(4-methoxy-benzylidene)-4,5,6,7-tetrahydro-1H-pyrazolo[4,3-c]pyridine-3-carboxylic acid [(1R)-1-phenyl-ethyl]-amide] | 5 |  | 1 | 38
5 | CCOC(=O)CN1C/C(=C\c2ccc(F)cc2)c2c(c(C(=O)N[C@H](C)c3ccccc3)nn2-c2ccc(Cl)cc2Cl)C1 [Cpd 43, (7E)-[1-(2,4-dichloro-phenyl)-7-(4-fluoro-benzylidene)-3-[(1R)-1-phenyl-ethylcarbamoyl]-1,4,6,7-tetrahydro-pyrazolo[4,3-c]pyridin-5-yl]-acetic acid ethyl ester] | 2 |  | 0.6 | 36
6 | COC(=O)N1C/C(=C\c2ccc(OC)cc2)c2c(c(C(=O)N[C@H](C)c3ccccc3)nn2-c2ccc(Cl)cc2Cl)C1 [Cpd 44] | 2 |  | 0.2 | 69
7 | COc1ccc(/C=C2\CN(C=O)Cc3c(C(=O)N[C@H](C)c4ccccc4)nn(-c4ccc(Cl)cc4Cl)c32)cc1 [Cpd 45, (7E)-1-(2,4-dichloro-phenyl)-5-formyl-7-(4-methoxy-benzylidene)-4,5,6,7-tetrahydro-1H-pyrazolo[4,3-c]pyridine-3-carboxylic acid [(1R)-1-phenyl-ethyl]-amide] | 3 |  | 0.1 | 45
8 | C[C@@H](NC(=O)c1nn(-c2ccc(Cl)cc2Cl)c2c1CN(C=O)C/C2=C\c1ccc(F)cc1)c1ccccc1 [Cpd 46, (7E)-1-(2,4-dichloro-phenyl)-7-(4-fluoro-benzylidene)-5-formyl-4,5,6,7-tetrahydro-1H-pyrazolo[4,3-c]pyridine-3-carboxylic acid [(1R)-1-phenyl-ethyl]-amide] | 6 |  | 0.1 | 18
9 | CCOC(=O)CN1C/C(=C\c2ccc(OC)cc2)c2c(c(C(=O)N[C@H](C)c3ccccc3)nn2-c2ccc(Cl)cc2Cl)C1 [Cpd 48, (7E)-[1-(2,4-dichloro-phenyl)-7-(4-methoxy-benzylidene)-3-[(1R)-1-phenyl-ethylcarbamoyl]-1,4,6,7-tetrahydro-pyrazolo[4,3-c]pyridin-5-yl]-acetic acid ethyl ester] | 4 |  | 0.2 | 38
